Experimental data: patent US5270334A, “4-methoxy-5-methyl-pyran-3-ol natural products and derivatives thereof” (E. R. Squibb & Sons, Inc., priority 1992, dated 1993)
≈ marks a conversion by molar mass, not a printed value.

Experiments:
Type in all cases: cell-based
[1] = molecular target: T1, lanosterol demethylase of Candida albicans (Candida albicans, UniProt P10613); assay: inhibition of lanosterol demethylase, radiolabeled metabolic assay (14C-acetate, lanosterol accumulation); details: Candida albicans SC5314, 14C-acetate, 30°
T1 construct: 14C-acetate sterol labelling, TLC
Description: The inhibition of lanosterol demethylase was determined by two methods: the spectrophotometric carbon monoxide binding assay of Omura and Sato (J. Biol. Chem. 239:2370-2378, 1964) and by a radiolabeled metabolic assay.
The ability of scopularin and its alcohol to inhibit the lanosterol demethylase of Candida albicans can also be visualized by a metabolic assay. Candida albicans, SC5314, was grown overnight at 30° with shaking in the same medium as that used above. Cells were harvested by centrifugation and resuspended in water to give an optical density of 0.3 at 660 nm. 750 μl of this cell suspension, 300 μl of a medium containing 0.35 g Difco yeast nitrogen base without amino acids, 1 g glucose and distilled water to 10 ml, 100 μl of test material and distilled water were combined to give a final volume of 1.425 ml. This was incubated for 15 minutes at 30° C. with shaking, then 3 μCi ^14 C-acetate was added and continued to incubate for 1 hour. Cells were harvested by centrifugation and extracted with 2×0.5 ml methanol; centrifuged, decanted supernate and repeated the extraction with […] methanol-benzene (1:1). Centrifuged, decanted; combined supernates, dried and resuspended in 100 μl chloroform-methanol (1:1). The aliquots were spotted onto silica gel 60 (Merck) plates and developed chromatographically in a solvent containing dichloromethane-acetone (60:1). […]

[2] = test system: Aspergillus fumigatus; assay: Antibacterial and antifungal activity of lanomycin, agar dilution assay (Table 4); details: SC2100, Aspergillus fumigatus SC 2100
Description: (§1) *Minimal inhibitory concentrations were determined by agar dilution assay

[3] = test system: Candida albicans; assay: as above
Description: as §1

[4] = test system: Candida guillermondii; assay: as above; details: SC2996, Candida guillermondii SC 2996
Description: as §1

[5] = test system: Candida tropicalis; assay: as above; details: SC2963, Candida tropicalis SC 2963
Description: as §1

[6] = test system: Enterococcus faecalis; assay: as above; details: SC9011; Enterococcus faecalis SC 9011
Description: as §1

[7] = test system: Escherichia coli; assay: as above; details: SC8294; Escherichia coli SC 8294
Description: as §1

[8] = test system: Klebsiella aerogenes; assay: as above; details: SC10440; Klebsiella aerogenes SC 10440
Description: as §1

[9] = test system: Micrococcus luteus; assay: as above; details: SC2495; Micrococcus luteus SC 2495
Description: as §1

[10] = test system: Proteus mirabilis; assay: as above; details: SC3855; Proteus mirabilis SC 3855
Description: as §1

[11] = test system: Pseudomonas aeruginosa; assay: as above; details: SC8329; Pseudomonas aeruginosa SC 8329
Description: as §1

[12] = test system: Staphylococcus aureus; assay: as above
Description: as §1

[13] = test system: Trichophyton mentagrophytes; assay: as above; details: SC2637, Trichophyton mentagrophytes SC 2637
Description: as §1

[14] = test system: Trichophyton rubrum; assay: as above; details: SC9199, Trichophyton rubrum SC 9199
Description: as §1

[15] = test system: Epidermophyton floccosum; assay: as above
Description: as §1
(§2) **Higher value is based on hazy growth; lower value for clearly

[16] = test system: Microsporum canis; assay: as above
Description: as §1, §2

[17] = test system: Candida glabrata; assay: Anticandidal activity of lanomycin, agar dilution method (Table 5); details: for MIC: Nakaseomyces glabratus, 10^4 cfu
Description: (§3) MICs were determined by the agar dilution method using a medium composed of tryptone (5 g), malt extract (3 g), glucose (10 g) and yeast extract (3 g) in 1 L distiled water; 10^4 cfu of the test organism was applied to the agar.

[18] = test system: Aspergillus fumigatus; assay: Activity of lanomycin against filamentous fungi, agar dilution (Table 6)
Description: as §3
(§4) MICs were determined as in Table 5 except that the inoculum was 10^3 cfu.

[19] = test system: Epidermophyton floccosum; assay: as above; details: SC9185; Epidermophyton floccosum SC 9185; 10^3 cfu
Description: as §3, §4

[20] = test system: Microsporum canis; assay: as above; details: SC9237; Microsporum canis SC 9237; 10^3 cfu
Description: as §3, §4

[21] = test system: Trichophyton mentagrophytes; assay: as above; details: SC2637; Trichophyton mentagrophytes SC 2637; 10^3 cfu
Description: as §3, §4

[22] = test system: Trichophyton rubrum; assay: as above; details: SC9199; Trichophyton rubrum SC 9199; 10^3 cfu
Description: as §3, §4

[23] = test system: Gram negative bacteria; assay: antibacterial activity of lanomycin; details: in words, Table 4
Description: as §1

[24] = test system: Gram positive bacteria; assay: antibacterial activity of lanomycin; details: in words, Table 4
Description: as §1

[25] = test system: Candida species; assay: antifungal activity of lanomycin; details: in words, Table 4
Description: as §1

T1 sequence (P10613 whole entry): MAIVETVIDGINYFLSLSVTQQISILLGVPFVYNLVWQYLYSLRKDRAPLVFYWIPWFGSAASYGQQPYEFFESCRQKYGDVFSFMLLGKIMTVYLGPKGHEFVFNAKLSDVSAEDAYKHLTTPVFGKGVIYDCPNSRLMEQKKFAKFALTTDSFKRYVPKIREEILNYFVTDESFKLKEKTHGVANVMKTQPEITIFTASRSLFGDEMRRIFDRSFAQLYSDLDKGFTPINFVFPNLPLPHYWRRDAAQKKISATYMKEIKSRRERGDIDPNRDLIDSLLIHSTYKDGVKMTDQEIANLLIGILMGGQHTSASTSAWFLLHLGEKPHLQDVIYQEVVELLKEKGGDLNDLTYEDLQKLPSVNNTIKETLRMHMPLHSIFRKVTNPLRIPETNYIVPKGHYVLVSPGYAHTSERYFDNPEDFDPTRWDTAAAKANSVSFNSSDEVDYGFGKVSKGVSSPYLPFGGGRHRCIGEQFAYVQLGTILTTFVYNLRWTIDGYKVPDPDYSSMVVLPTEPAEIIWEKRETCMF

In the case of `CCC/C=C/C=C/C=C(\C)[C@H]1OC[C@@H](C)[C@@H](OC)[C@@H]1OC(=O)CN` (relative stereo) [Scopularin, (2α, 3β, 4α, 5α)-Tetrahydro-4-methoxy-5-methyl-2-(1-methyl-1,3,5-nonatrienyl)-2H-pyran-3-ol, aminoacetate ester], the “concentration causing accumulation of lanosterol, consistent with inhibition of lanosterol demethylase” value [1] is reported as 6.7×10^-7.

Compound `C/C=C/C=C/C=C(\C)[C@H]1OC[C@@H](C)[C@@H](OC)[C@@H]1OC(=O)CN` (relative stereo) [Lanomycin] has an MIC [2] of 100 µg/mL (≈ 323 µM), an MIC ([3]; SC5314, Candida albicans SC 5314) greater than 100 µg/mL and an MIC ([3]; SC11422, Candida albicans SC 11422) of 100 µg/mL (≈ 323 µM). The MIC [4] was 1.6 µg/mL (≈ 5.17 µM), the MIC [5] was 25 µg/mL (≈ 80.8 µM) and the MIC [6] was greater than 100 µg/mL. For the same compound, the MIC [7] was greater than 100 µg/mL, the MIC [8] was greater than 100 µg/mL and the MIC [9] was greater than 100 µg/mL. It also gave an MIC [10] greater than 100 µg/mL, an MIC [11] greater than 100 µg/mL and an MIC ([12]; SC1276, Staphylococcus aureus SC 1276) greater than 100 µg/mL. For the same compound, the MIC ([12]; SC2399, Staphylococcus aureus SC 2399) was greater than 100 µg/mL, the MIC [13] was 0.8 µg/mL (≈ 2.59 µM) and the MIC [14] was 1.6 µg/mL (≈ 5.17 µM). The MIC ([15]; SC9185, Epidermophyton floccosum SC 9185, higher value, based on hazy growth) was 100 µg/mL (≈ 323 µM), the MIC ([15]; SC9185, Epidermophyton floccosum SC 9185, lower value, clearly discernible growth) was 1.6 µg/mL (≈ 5.17 µM) and the MIC ([16]; SC9237, Microsporum canis SC 9237, higher value, based on hazy growth) was 100 µg/mL (≈ 323 µM). The MIC ([16]; SC9237, Microsporum canis SC 9237, lower value, clearly discernible growth) was 1.6 µg/mL (≈ 5.17 µM), the MIC ([17]; SC9342, Candida glabrata SC 9342) was 0.8 µg/mL (≈ 2.59 µM) and the MIC ([17]; SC11267, Candida glabrata SC 11267) was 25 µg/mL (≈ 80.8 µM). The “activity against certain strains of C. glabrata” value ([17]; in words, Table 5) was “good activity”, the MIC ([18]; SC2100, Aspergillus fumigatus SC 2100, 10^3 cfu) was 100 µg/mL (≈ 323 µM) and the “activity against Aspergillus fumigatus” value ([18]; in words, Table 6) was “inactive”. It also gave an MIC [19] of 0.4 µg/mL (≈ 1.29 µM), an MIC [20] of 0.4 µg/mL (≈ 1.29 µM) and an MIC [21] of 0.4 µg/mL (≈ 1.29 µM). The MIC [22] was 1.6 µg/mL (≈ 5.17 µM), the “activity against Gram negative bacteria” value [23] was “not active” and the “activity against Gram positive bacteria” value [24] was “not active”. For the same compound, the “activity against some Candida species” value [25] was “showed activity”.
